# Earlier results in patent US20030235609A1, “Use of cholinesterase antagonists to treat insulin resistance” (priority 2002, published 2003).
# Tested on: muscarinic receptor
# Settings: cats
Compound,Dose required to produce a full insulin resistance (administered into the portal vein),Dose achieving a similar degree of insulin resistance
COc1ccccc1CNCCCCCCNCCCCCCCCNCCCCCCNCc1ccccc1OC [methoctramine],10^−6 μmol/kg,
CN1CCN(CC(=O)N2c3ccccc3C(=O)Nc3cccnc32)CC1 [pirenzepine],,10^7 mmol/kg
